Data on 16 molecules can be found in patent publication US6511995B1, “Pyridine derivative and pharmaceutical containing the same” (Otsuka Pharmaceutical Co., Ltd., priority 1998, dated 2003).

This assay deals with Human Ito cells (LI90). Briefly: Test for inhibition of collagen synthesis (3H proline labeling, hTGF β-1 treated cells). It is filed as cell-based. The conditions noted are these: cultured with test compound in MEM containing 10 PM hTGF β-1 and 2% PDS for 16 hours, 3H proline labeling 24 hours, read-out: IC50 (μM), concentration at which the collagen synthesis is inhibited by 50% (T/C = 0.5). As to the method: The pyridine derivatives (test compounds) obtained in Examples 1-2, 9-10, 21, 25, 29, 33-37, 39, 42, 44 and 46 were subjected to the following collagen synthesis test.
Test for Inhibition of Collagen Synthesis
Plasma obtained by centrifugation of rabbit blood was centrifuged again to remove platelets, and dialysis of the resulting supernatant was carried out against a Phosphate Buffered Saline (PBS) containing 0.01% (w/v) calcium chloride and 0.01% (w/v) magnesium chloride. Then, centrifugation was carried out to remove the residue and the resulting supernatant was immobilized at 56° C. for 30 minutes. The immobilized supernatant was sterilized by using a filter (0.22 μm) to prepare Plasma Derived Serum (PDS).
Human Ito cells (LI90) were plated in DULBECCO's modified eagle medium (DMEM) containing 10% fetal bovine serum and cultured in an incubator in the presence of 5% carbon dioxide (CO2) for 24 hours at 37° C., and then washed with PBS and cultured in Eagle's minimum essential medium (MEM) containing 2% PDS for additional 3 days. The cultured cells were washed with PBS and cultured together with the test compounds in MEM containing 10 PM hTGF (transforming growth factor) β-1 (containing 2% PDS based on the total amount of MEM) for 16 hours. Then, the cultured L190 was washed with PBS and RI (radioisotope) labeling was carried out in MEM containing ^3H proline as a radioactive labeled compound and 0.25 mM ascorbic acid for 24 hours. This cultured supernatant was precipitated by using trichloroacetic acid (TCA), and then the radioactivity in an […] fraction was measured and the resulting measured value was taken as collagen synthesis activity.
By comparing the radioactivity in the cultured supernatant containing the test compound with the radioactivity in the cultured supernatant containing no test compound (control), the collagen synthesis inhibition activity (T/C) was calculated by the following equation:
T/C=(radioactivity in cultured supernatant containing test compound)/(radioactivity in cultured supernatant of control).
IC50 was determined as the concentration (μM) at which the collagen systhesis can be inhibited by 50% (concentration of the test compound wherein C50=T/C corresponds to 0.5).

As to `O=C(Nc1ccc(Oc2cccc3c2CCC3=O)nc1)c1ccc(Cl)c(Cl)c1` [Example 1, 3,4-dichloro-N1-{6-[(1-oxo-2,3-dihydro-1H-inden-4-yl)oxy]-3-pyridinyl}benzamide], the IC50 was 2.14 µM.

Take `O=C(Nc1ccc(Oc2cccc3c2CCC3)nc1)c1ccc(Cl)c(Cl)c1` [Example 25, 3,4-dichloro-N1-(6-[(2,3-dihydro-1H-inden-4-yl)oxy]-3-pyridinyl}benzamide]: the IC50 came to 2.7 µM.

For the molecule `O=C(Nc1ccc(Cl)c(Cl)c1)c1ccc(Oc2cccc3c2CCC3=O)nc1` [Example 37, N3-(3,4-dichlorophenyl)-6-[(1-oxo-2,3-dihydro-1H-inden-4-yl)oxy]nicotinamide], the IC50 came to 2.52 µM.

Turning to `CC(=O)c1ccc(Oc2ccc(NC(=O)c3ccc(Cl)c(Cl)c3)cn2)cc1C` [Example 21, N1-[6-(4-acetyl-3-methylphenoxy)-3-pyridinyl]-3,4-dichlorobenzamide], the IC50 was 2.92 µM.

Regarding `O=C(Nc1ccc(Oc2cccc3c2CC=C3)nc1)c1ccc(Cl)c(Cl)c1` [Example 35, 3,4-dichloro-N1-{6-[(1H-inden-7-yl)oxy]-3-pyridinyl}benzamide], the IC50 came out at 2.43 µM.

In the case of `O=C(Nc1ccc(Oc2cccc3c2CCCC3=O)nc1)c1ccc(Cl)c(Cl)c1` [Example 9, 3,4-dichloro-N1-{6-[(5-oxo-5,6,7,8-tetrahydro-1-naphthalenyl)oxy]-3-pyridinyl}benzamide], the IC50 amounted to 2.34 µM.

For the molecule `CC(=O)c1ccc(Oc2ccc(C(=O)Nc3ccc(C(F)(F)F)cc3)cn2)cc1` [Example 44, 6-(4-acetylphenoxy)-N3-[4-(trifluoromethyl)phenyl]nicotinamide], the IC50 amounted to 0.92 µM.

Regarding `O=C(Nc1ccc(Oc2ccc3c(c2)C(=O)CCCC3)nc1)c1ccc(Cl)c(Cl)c1` [Example 10], the IC50 was 2.6 µM.

For `CC(=O)OC1=CCc2c(Oc3ccc(NC(=O)c4ccc(Cl)c(Cl)c4)cn3)cccc21` [Example 46, N1-{6-[(3-acetoxy-1H-inden-7-yl)oxy]-3-pyridinyl}-3,4-dichlorobenzamide], the IC50 was 1.12 µM.

Take `CC1(c2ccc(Oc3ccc(NC(=O)c4ccc(Cl)c(Cl)c4)cn3)cc2)OCCO1` [Example 33, 3,4-dichloro-N1-{6-[4-(2-methyl-1,3-dioxolane-2-yl)phenoxy]-3-pyridinyl}benzamide]: the IC50 turned out to be 3.88 µM.

On to `O=C(Nc1ccc(Oc2cccc3c2CCC3=O)nc1)c1ccc(C(F)(F)F)cc1` [Example 2, N1-{6-[(1-oxo-2,3-dihydro-1H-inden-4-yl)oxy]-3-pyridinyl}-4-(trifluoromethyl)benzamide], for which the IC50 was determined as 2.9 µM.

For `CC(O)c1ccc(Oc2ccc(NC(=O)c3ccc(Cl)c(Cl)c3)cn2)cc1` (stereo not shown) [Example 36, 3,4-dichloro-N1-{6-[4-(1-hydroxyethyl)phenoxy]-3-pyridinyl}benzamide], the IC50 came out at 3.72 µM.

Take `Cc1cccc(Oc2ccc(NC(=O)c3ccc(Cl)c(Cl)c3)cn2)c1C` [Example 29, 3,4-dichloro-N1-[6-(2,3-dimethylphenoxy)-3-pyridinyl]benzamide]: the IC50 was 1.58 µM.

In the case of `O=C(Nc1ccc(C(F)(F)F)cc1)c1ccc(Oc2cccc3c2CCC3=O)nc1` [Example 39, 6-[(1-oxo-2,3-dihydro-1H-inden-4-yl)oxy]-N3-[4-(trifluoromethyl)phenyl]nicotinamide], the IC50 stood at 0.55 µM.

As to `O=C(Nc1ccc(Cl)c(Cl)c1)c1ccc(Oc2cccc3c2CCCC3=O)nc1` [Example 42, N3-(3,4-dichlorophenyl)-6-[(5-oxo-5,6,7,8-tetrahydro-1-naphthalenyl)oxy]nicotinamide], the IC50 turned out to be 2.29 µM.

For the molecule `O=C(Nc1ccc(Oc2cccc3c2CCC3O)nc1)c1ccc(Cl)c(Cl)c1` (stereo not shown) [Example 34, 3,4-dichloro-N1-{6-[(1-hydroxy-2,3-dihydro-1H-inden-4-yl)oxy]-3-pyridinyl}benzamide], the IC50 was 2.15 µM.
